Measurements published in US10285982B2, “3-(1H-pyrrolo[2,3-B]pyridin-2-yl)-1H-pyrazolo[3,4-C]pyridines and therapeutic uses thereof” (Samumed, LLC, priority 2015, dated 2019).

Key:
Assay type in all cases: cell-based
[1] = test system: Wnt activity (Sp5-Luc reporter, SW480 colon carcinoma cells); experiment: Wnt activity screening assay, Sp5-Luc reporter gene in SW480 cells; conditions: Homo sapiens, overnight incubation
Text: The screening assay for Wnt activity is described as follows. Reporter cell lines can be generated by stably transducing cancer cell lines (e.g., colon cancer) or primary cells (e.g., IEC-6 intestinal cells) with a lentiviral construct that includes a Wnt-responsive promoter driving expression of the firefly luciferase gene.
SW480 colon carcinoma cells were transduced with a lentiviral vector expressing luciferase with a human Sp5 promoter consisting of a sequence of eight TCF/LEF binding sites. SW480 cells stably expressing the Sp5-Luc reporter gene and a hygromycin resistance gene were selected by treatment with 150 μg/mL of hygromycin for 7 days. These stably transduced SW480 cells were expanded in cell culture and used for all further screening activities. Each compound was dissolved in DMSO as a 10 mM stock and used to prepare compound source plates. Serial dilution (1:3, 10-point dose-response curves starting from 10 μM) and compound transfer was performed using the ECHO 550 (Labcyte, Sunnyvale, Calif.) into 384-well white solid bottom assay plates (Greiner Bio-One) with appropriate DMSO backfill for a final DMSO concentration of 0.1%. For Sp5-Luc reporter gene assays, the cells were plated at 4,000 cells/well in 384-well plates with medium containing 1% fetal bovine serum and incubated overnight at 37° C. and 5% CO2. Following incubation, 20 μl of BrightGlo luminescence reagent (Promega) was added to each well of the 384-well assay plates. The plates were placed on an orbital shaker for 2 min and then luminescence was quantified using the Envision (Perkin Elmer) plate reader. Readings were normalized to DMSO only treated cells, and normalized activities were utilized for EC50 calculations using the dose-response log (inhibitor) vs. response-variable slope (four parameters) nonlinear regression feature available in GraphPad Prism 5.0 (or Dotmatics). For EC50 of >10 μM, the percent inhibition at 10 μM is provided.

SW480 colon cancer cells = experiment: Cell viability assay (CellTiter-Blue); conditions: Homo sapiens, 96 h, four days
Method: Representative compounds were screened using the following assay procedure to assess the effect on cell viability as described below.
Each compound was dissolved in DMSO as a 10 mM stock and used to prepare compound source plates. Serial dilution (1:3, 8-point dose-response curves from 10 μM to 0.0045 μM) and compound transfer was performed using the ECHO 550 (Labcyte, Sunnyvale, Calif.) into 96-well clear bottom, black-walled plates (Corning-Costar).
Approximately 2×10^3 SW480 colon cancer cells were seeded into each well and allowed to incubate in the presence or absence of compound for four days at 37° C./5% CO2. Eight replicates of DMSO-treated cells served as controls and cells treated with compound were performed in duplicate.
After incubation, 20 μL of CellTiter-Blue (Promega) was added to each well allowed to incubate for approximately 3 hours. This reagent was a buffered solution which contains resazurin, metabolically active cells were able to reduce rezarurin (blue) into resorufin (pink) which was highly fluorescent. This measured fluorescence was used as a readout for cell viability.
After incubation, the plates were read at Ex 560 nm Em 590 nm (Cytation 3, BioTek). Dose-response curves were generated and EC50 concentration values were calculated using non-linear regression curve fit in the GraphPad Prism (San Diego, Calif.) or Dotmatics' Studies Software (Bishops Stortford, UK). For EC50 of >10 μM, the percent inhibition at 10 μM is provided.

IL-6 (THP-1 cells) = experiment: IL-6 inhibition in LPS-stimulated THP-1 cells (HTRF); conditions: Homo sapiens; IL-6 in THP-1 cells, LPS 500 ng/mL, 22 hours
Method: Human monocyte cell line (THP-1 cells; Catalog # TIB-202, ATCC, Manassas, Va.) were cultured in Roswell Park Memorial Institute (RPMI) 1640 Medium (Catalog #21870-100, Buffalo, N.Y.) with 1% L-glutamine, 1% HEPES, 1% Sodium Pyruvate, 2% Sodium Bicarbonate supplemented with 100 units/mL penicillin, 50 μg/mL streptomycin, 2-mercaptoethanol (0.05 mM) [basal medium] and 10% fetal bovine serum (Catalog #16140089, Life Technologies, Carlsbad, Calif.) at 37° C. and 5% CO2.
THP-1 cells were cultured in basal media with 1% FBS for 24 hours before the start of the assay. Each compound was dissolved in DMSO as a 10 mM stock and used to prepare compound source plates. Serial dilution (1:3, 10-point dose-response curves starting from 10 μM) and compound transfer was performed using the ECHO 550 (Labcyte, Sunnyvale, Calif.) into 384-well white low volume assay plates (Greiner Bio-One) with appropriate DMSO backfill for a final DMSO concentration of 0.1%. THP-1 cells were plated at 5000 cells/well in the 384-well plates and incubated at 37° C. for 2 h. 500 ng/mL of LPS was added after 2 hours and cells were incubated for another 22 hours at 37° C. Plates were spun in a centrifuge for 1 minute at […] and a mixture of anti-IL6 XL665, and anti-IL6 Cryptate diluted in reconstitution buffer (Cisbio Inc.) was added to each well. Following incubation for 3 hrs at room temperature, Homogeneous Time-Resolved Fluorescence (HTRF) was measured using the Envision (Perkin Elmer) at 665 nm and […]. The ratio of fluorescence at 665 nm to 620 nm was used as a readout for IL6 quantification. All samples were processed in duplicate. Readings were normalized to DMSO treated cells and normalized activities were utilized for EC50 calculations using the dose-response log (inhibitor) vs. response-variable slope (four parameters) nonlinear regression feature available in GraphPad Prism 5.0 (or Dotmatics). For EC50 of >10 μM, the percent inhibition at 10 μM is provided.

[2] = test system: primary human fibroblasts derived from IPF patients (LL29 cells) treated with TGF-β1; experiment: Inhibition of fibrotic process, αSMA staining in TGF-β1 treated LL29 fibroblasts; conditions: Fibroblast, 96 h, % αSMA positive LL29 cells, TGF-β1 20 ng/mL, 4 days
Text: Representative compounds were screened using primary human fibroblasts (derived from IPF patients) treated with TGF-β1 to determine their ability to inhibit the fibrotic process.
Primary human fibroblasts derived from IPF patients (LL29 cells) [^1Xiaoqiu Liu, et. al., “Fibrotic Lung Fibroblasts Show Blunted Inhibition by cAMP Due to Deficient cAMP Response Element-Binding Protein Phosphorylation”, Journal of Pharmacology and Experimental Therapeutics (2005), 315(2), 678-687; ^2Watts, K. L., et. al., “RhoA signaling modulates cyclin D1 expression in human lung fibroblasts; implications for idiopathic pulmonary fibrosis”, Respiratory Research (2006), 7(1), 88] were obtained from American Type Culture Collection (ATCC) and expanded in F12 medium supplemented with 15% Fetal Bovine Serum and Penicillin/Streptomycin.
Each compound was dissolved in DMSO as a 10 mM stock and used to prepare compound source plates. Serial dilution (1:2, 11-point dose-response curves from 10 μM to 1.87 nM) and compound transfer was performed using the ECHO 550 (Labcyte, Sunnyvale, Calif.) into 384-well clear bottom assay plates (Greiner Bio-One) with appropriate DMSO backfill for a final DMSO concentration of 0.1%. LL29 cells are plated at 1,500 cells/well in 80 μL/well F12 medium supplemented with 1% Fetal Bovine Serum. One hour after addition of the cells, TGF-β1 (Peprotech; 20 ng/mL) was added to the plates to induce fibrosis (ref. 1 and 2 above). Wells treated with TGF-β1 and containing DMSO were used as controls. Cells were incubated at 37° C. and 5% CO2 for 4 days. Following incubation for 4 days, SYTOX green nucleic acid stain (Life Technologies [Thermo Fisher Scientific]) was added to the wells at a final concentration of 1 μM and incubated at room temperature for 30 min. Cells were then fixed using 4% formaldehyde (Electron Microscopy Sciences), washed 3 times with PBS followed by blocking and permeabilization using 3% Bovine Serum Albumin (BSA; Sigma) and 0.3% Triton X-100 (Sigma) in PBS. Cells were then stained with antibody specific to α-smooth muscle actin (αSMA; Abcam) (ref. 1 and 2 above) in 3% Bovine Serum Albumin (BSA; Sigma) and 0.3% Triton X-100 (Sigma) in PBS, and incubated overnight at 4° C. Cells were then washed 3 times with PBS, followed by incubation with Alexa Flor-647 conjugated secondary antibody (Life Technologies [Thermo Fisher Scientific]) and DAPI at room temperature for 1 hour. Cells were then washed 3 times with PBS and plates were sealed for imaging. αSMA staining was imaged by excitation at 630 nm and emission at 665 nm and quantified using the Compartmental Analysis program on the CellInsight CX5 (Thermo Scientific). Dead or apoptotic cells were excluded from analysis based on positive SYTOX green staining. % of total cells positive for αSMA were counted in each well and normalized to the average of 11 wells treated with TGF-β1 on the same plate using Dotmatics' Studies Software. The normalized averages (fold change over untreated) of 3 replicate wells for each compound concentration were used to create dose-responses curves and EC50 values were calculated using non-linear regression curve fit in the Dotmatics' Studies Software. For EC50 of >10 μM, the percent inhibition at 10 μM is provided.

CC(C)(C)CC(=O)Nc1cncc(-c2cc3c(-c4cc5c(N6CCCCC6)ccnc5[nH]4)n[nH]c3cn2)c1 [Compound 184, 3,3-Dimethyl-N-(5-(3-(4-(piperidin-1-yl)-1H-pyrrolo[2,3-b]pyridin-2-yl)-1H-pyrazolo[3,4-c]pyridin-5-yl)pyridin-3-yl)butanamide]
EC50 [1]: 3240 nM | EC50 (SW480 colon cancer cells): 4300 nM | EC50 (IL-6 (THP-1 cells)): 3310 nM | EC50 [2]: 1960 nM

c1ccc(-c2cc3c(-c4cc5c(-c6cccs6)ccnc5[nH]4)n[nH]c3cn2)nc1 [Compound 364, 5-(Pyridin-2-yl)-3-(4-(thiophen-2-yl)-1H-pyrrolo[2,3-b]pyridin-2-yl)-1H-pyrazolo[3,4-c]pyridine]
EC50 [1]: 630 nM | EC50 (SW480 colon cancer cells): 706 nM | EC50 (IL-6 (THP-1 cells)): 1010 nM | EC50 [2]: 403 nM

O=C(Nc1cncc(-c2cc3c(-c4cc5c(-c6ccoc6)ccnc5[nH]4)n[nH]c3cn2)c1)C1CC1 [Compound 328, N-(5-(3-(4-(Furan-3-yl)-1H-pyrrolo[2,3-b]pyridin-2-yl)-1H-pyrazolo[3,4-c]pyridin-5-yl)pyridin-3-yl)cyclopropanecarboxamide]
EC50 [1]: 121 nM | EC50 (SW480 colon cancer cells): 107 nM | EC50 (IL-6 (THP-1 cells)): 533 nM | EC50 [2]: 37 nM

c1cncc(-c2cc3c(-c4cc5c(N6CCCCC6)ccnc5[nH]4)n[nH]c3cn2)c1 [Compound 172, 3-(4-(Piperidin-1-yl)-1H-pyrrolo[2,3-b]pyridin-2-yl)-5-(pyridin-3-yl)-1H-pyrazolo[3,4-c]pyridine]
EC50 [1]: 2240 nM | EC50 (SW480 colon cancer cells): 3540 nM | EC50 (IL-6 (THP-1 cells)): 3400 nM | EC50 [2]: 1730 nM

CC(C)Nc1cncc(-c2cc3c(-c4cc5c(-c6ccc(F)cc6)ccnc5[nH]4)n[nH]c3cn2)c1 [Compound 40, 5-(3-(4-(4-Fluorophenyl)-1H-pyrrolo[2,3-b]pyridin-2-yl)-1H-pyrazolo[3,4-c]pyridin-5-yl)-N-isopropylpyridin-3-amine]
EC50 [1]: 223 nM | EC50 (SW480 colon cancer cells): 179 nM | EC50 (IL-6 (THP-1 cells)): 9380 nM | EC50 [2]: 43 nM

CC(C)Nc1cncc(-c2cc3c(-c4cc5c(N6CCCCC6)ccnc5[nH]4)n[nH]c3cn2)c1 [Compound 180, N-Isopropyl-5-(3-(4-(piperidin-1-yl)-1H-pyrrolo[2,3-b]pyridin-2-yl)-1H-pyrazolo[3,4-c]pyridin-5-yl)pyridin-3-amine]
EC50 [1]: 1630 nM | EC50 (SW480 colon cancer cells): 1540 nM | EC50 (IL-6 (THP-1 cells)): 9550 nM | EC50 [2]: 2430 nM

Cc1ncc(-c2cc3c(-c4cc5c(-c6cccs6)ccnc5[nH]4)n[nH]c3cn2)n1C [Compound 701, 5-(1,2-Dimethyl-1H-imidazol-5-yl)-3-(4-(thiophen-2-yl)-1H-pyrrolo[2,3-b]pyridin-2-yl)-1H-pyrazolo[3,4-c]pyridine]
EC50 [1]: 1060 nM | EC50 (SW480 colon cancer cells): 1220 nM | EC50 (IL-6 (THP-1 cells)): 988 nM | EC50 [2]: 928 nM

CC(C)C(=O)Nc1cncc(-c2cc3c(-c4cc5c(N6CCCCC6)ccnc5[nH]4)n[nH]c3cn2)c1 [Compound 177, N-(5-(3-(4-(Piperidin-1-yl)-1H-pyrrolo[2,3-b]pyridin-2-yl)-1H-pyrazolo[3,4-c]pyridin-5-yl)pyridin-3-yl)isobutyramide]
EC50 [1]: 867 nM | EC50 (SW480 colon cancer cells): 1080 nM | EC50 (IL-6 (THP-1 cells)): 9850 nM | EC50 [2]: 1490 nM

Cc1ccncc1-c1cc2c(-c3cc4c(-c5ccc(F)cc5)ccnc4[nH]3)n[nH]c2cn1 [Compound 33, 3-(4-(4-Fluorophenyl)-1H-pyrrolo[2,3-b]pyridin-2-yl)-5-(4-methylpyridin-3-yl)-1H-pyrazolo[3,4-c]pyridine]
EC50 [1]: 642 nM | EC50 (SW480 colon cancer cells): 1050 nM | EC50 (IL-6 (THP-1 cells)): 4050 nM | EC50 [2]: 146 nM

c1csc(-c2ccnc3[nH]c(-c4n[nH]c5cnc(-c6cncc(CN7CCCCC7)c6)cc45)cc23)c1 [Compound 351, 5-(5-(Piperidin-1-ylmethyl)pyridin-3-yl)-3-(4-(thiophen-2-yl)-1H-pyrrolo [2,3-b]pyridin-2-yl)-1H-pyrazolo[3,4-c]pyridine]
EC50 [1]: 6900 nM | EC50 (SW480 colon cancer cells): 4100 nM | EC50 (IL-6 (THP-1 cells)): 182 nM | EC50 [2]: 2560 nM
